Measurements: patent US20070128217A1 (priority 2003, published 2007)

Legend:
[1] = system: control sera (pooled serum of ten healthy LUMC hospital workers; commercial negative donor pooled serum from the Dutch bloodbank); type: binding, human
[2] = system: rabbit serum obtained by immunizing a rabbit with the SARS-CoV strain Frankfurt 1; type: binding; set-up: Binding of a rabbit serum to linear peptides / Binding of a rabbit serum to looped peptides / Rabbit serum linear peptides / Rabbit serum looped peptides / Binding of a rabbit serum to linear peptides of protein N of SARS-CoV Urbani (Rabbit serum linear peptides) / Binding of a rabbit serum to looped/cyclic peptides of protein N of SARS-CoV Urbani (Rabbit serum looped peptides): unit not given here
[3] = system: antibodies in sera from SARS patients (sera 1a, 1b, 2, 6, 37, 62, London, SARS-yellow, SARS-green); type: binding, human

Sequence | Binding of Control Serum Blood-Bank to Looped peptides [1] | Binding of Control serum Blood-bank to linear peptides [1] | Binding of Control serum LUMC to linear peptides [1] | Binding of Control serum LUMC to looped peptides [1] | Binding of a rabbit serum to linear peptides [2] | Binding of a rabbit serum to looped peptides [2] | Binding of serum 1a to linear peptides of protein E of SARS-CoV Urbani [3] | Binding of serum 1a to looped/cyclic peptides of protein E of SARS-CoV Urbani [3] | Binding of serum 1b to linear peptides of protein E of SARS-CoV Urbani [3] | Binding of serum 1b to looped/cyclic peptides of protein E of SARS-CoV Urbani [3] | Binding of serum 2 to linear peptides of protein E of SARS-CoV Urbani [3] | Binding of serum 2 to looped/cyclic peptides of protein E of SARS-CoV Urbani [3] | Binding of serum 6 to linear peptides of protein E of SARS-CoV Urbani [3] | Binding of serum 6 to looped/cyclic peptides of protein E of SARS-CoV Urbani [3] | Binding of serum 37 to linear peptides of protein E of SARS-CoV Urbani [3] | Binding of serum 37 to looped/cyclic peptides of protein E of SARS-CoV Urbani [3] | Binding of serum 62 to linear peptides of protein E of SARS-CoV Urbani [3] | Binding of serum 62 to looped/cyclic peptides of protein E of SARS-CoV Urbani [3] | Binding of serum London to linear peptides of protein E of SARS-CoV Urbani [3] | Binding of serum London to looped/cyclic peptides of protein E of SARS-CoV Urbani [3] | also measured
YSFVSEETGTLIVNS | 0.6 | 0.7 | 1.0 | 0.8 | 0.2 | 0.4 | 0.8 | 0.7 | 0.7 | 0.5 | 0.5 | 0.7 | 0.5 | 0.4 | 0.6 | 0.8 | 0.5 | 0.8 | 0.7 | 0.4 | Binding of serum SARS-green to linear peptides of protein E of SARS-CoV Urbani [3]: 0.7; Binding of serum SARS-green to looped/cyclic peptides of protein E of SARS-CoV Urbani [3]: 0.4; Binding of serum SARS-yellow to linear peptides of protein E of SARS-CoV Urbani [3]: 0.6; Binding of serum SARS-yellow to looped/cyclic peptides of protein E of SARS-CoV Urbani [3]: 0.7
EETGTLIVNSVLLFL | 0.6 | 0.7 | 0.6 | 0.4 | 0.5 | 0.0 | 0.8 | 0.4 | 0.7 | 0.3 | 0.4 | 0.3 | 0.6 | 0.4 | 0.8 | 0.4 | 0.7 | 0.7 | 0.5 | 0.4 | Binding of serum SARS-green to linear peptides of protein E of SARS-CoV Urbani [3]: 0.5; Binding of serum SARS-green to looped/cyclic peptides of protein E of SARS-CoV Urbani [3]: 0.3; Binding of serum SARS-yellow to linear peptides of protein E of SARS-CoV Urbani [3]: 0.2; Binding of serum SARS-yellow to looped/cyclic peptides of protein E of SARS-CoV Urbani [3]: 0.5
